According to PMC10005264, “Computational Design, Synthesis, and Biophysical Evaluation of β-Amido Boronic Acids as SARS-CoV-2 M^pro Inhibitors” (Molecules, 2023):

Legend:
[1] = target: T1, recombinant Mpro^CoV-2 (SARS-CoV-2 M^pro) (Severe acute respiratory syndrome coronavirus 2, UniProt P0DTD1); test: FRET peptide cleavage assay (Dabcyl-KTSAVLQSGFRKME-Edans); format: biochemical
T1 construct: gene rep
Text: FRET peptide cleavage assay (Dabcyl-KTSAVLQSGFRKME-Edans) on recombinant Mpro^CoV-2 (SARS-CoV-2 M^pro)

[2] = target: T2, His-tagged recombinant Mpro^CoV-2 (Severe acute respiratory syndrome coronavirus 2, UniProt P0DTD1); test: microscale thermophoresis binding check; settings: 50 nM labelled protein, PBS-T, 2.5% DMSO, 25 °C, 60-90 min incubation; tested concentration, not a Kd
T2 construct: gene rep
Text: microscale thermophoresis binding check on His-tagged recombinant Mpro^CoV-2

SMILES	inhibition at 20 µM [1] [%]	Ligand Concentration Displaying: / Binding [2] [µM]
NC(=O)CCC(=O)N(CC(=O)NC1CCCCC1)[C@H](CB(O)O)c1ccccc1 [3a, (R)-(2-(4-Amino-N-(2-(cyclohexylamino)-2-oxoethyl)-4-oxobutanamido)-2-phenylethyl)boronic Acid]	23.4	
NC(=O)CCC(=O)N(CC(=O)NCc1ccccc1)[C@H](CB(O)O)c1ccccc1 [3c, (R)-(2-(4-Amino-N-(2-(benzylamino)-2-oxoethyl)-4-oxobutanamido)-2-phenylethyl)boronic Acid]		4
NC(=O)CCCC(=O)N(CC(=O)NCc1ccccc1)[C@H](CB(O)O)c1ccccc1 [3ea, (R)-(2-(5-Amino-N-(2-(benzylamino)-2-oxoethyl)-5-oxopentanamido)-2-phenylethyl)boronic Acid]	23.7	
NC(=O)CCCC(=O)N(CC(=O)NCc1ccccc1)[C@@H](CB(O)O)c1ccccc1 [3eb, (S)-(2-(5-Amino-N-(2-(benzylamino)-2-oxoethyl)-5-oxopentanamido)-2-phenylethyl)boronic Acid]		3.1
CC(C)(C)NC(=O)CN(C(=O)CCCC(N)=O)[C@H](CB(O)O)c1ccccc1 [3f, (R)-(2-(5-Amino-N-(2-(tert-butylamino)-2-oxoethyl)-5-oxopentanamido)-2-phenylethyl)boronic Acid]		1
